From patent US9255272B2, “Use of inhibitors of leukotriene B4 receptor BLT2 for treating asthma” (Korea University Research & Business Foundation, priority 2007, dated 2016)

Columns and labels:
VCAM-1 = VCAM-1 expression in lung tissue (Western blot); type: in vivo, mouse
Description: (§1) Female BALB/c mice and C57BL/6 mice (7 weeks old; 18-20 g) were obtained from Orientbion Inc. (Seoungnam, Korea). Sensitization and challenge were carried out as described previously with some modification (28). Briefly, female C57BL/6 mice (7 weeks old; 18-20 g) were immunized by intraperitoneal (i.p.) injection of 200 μg ovalbumin (OVA) emulsified in 2.5 mg of adjuvant aluminum hydroperoxide gel (alum) (Pierce, Rockford, Ill.). A second i.p. injection of 20 μg OVA adsorbed onto alum (2.5 mg) was administered 10 days later. After an additional 10 days, mice were exposed to an aerosol of 1% OVA in saline for 30 min daily on 3 consecutive days. On day 25, mice were finally challenged by provocation with 10% OVA aerosol. For inhibition experiments, sense or antisense BLT2 (1.6 mg/kg) was injected intravenously 24 h and then 1 h before the 10% OVA challenge. The mice were then killed on day 27 to assess asthmatic phenotypes. Antisense BLT2 oligonucleotide (5′-[…]-3′ (SEQ ID NO: 15)), sense BLT2 oligonucleotide (5′-[…]-3′ (SEQ ID NO: 16)).
Alternatively, BALB/c mice were sensitized on day 1 by i.p. injection of 20 μg OVA emulsified in 2.5 mg of alum (Pierce, Rockford, Ill.), followed by an identical booster injection administered on day 14. On days 21, 22 and 23 after initial sensitization, the mice were challenged for 30 min with an aerosol of 1% OVA using an ultrasonic nebulizer. LY255283 (2.5 mg/kg) or vehicle control (DMSO) was administered intravenously 1 h before 1% OVA challenge. Mice were killed on day 25, to assess asthmatic phenotypes. 2′,7′-dichorofluorescein diacetate (DCF-DA) was purchased from Molecular Probes (Eugene, Oreg.). BSA and DMSO were from Sigma-Aldrich (St. Louis, Mo.). Acetyl-methacholine chloride was purchased from Sigma-Aldrich (St. Louis, Mo.). All other chemicals were from standard sources and were of molecular biology grade or higher. […]

OVA-challenged mice = assay: AHR (Penh) in response to methacholine in OVA-challenged mice; type: in vivo, mouse; conditions: for reduction of Penh (based on area-under-the-curve calculations): methacholine 6.25-50 mg/ml, 24 h after last OVA challenge
Description: as §1, with “16)). […]” for “16)).”
Airway AHR was measured in unrestrained, conscious mice 24 h after the final OVA challenge using a whole-body plethysmograph, as previously described (29). Mice were placed in a barometric plethysmographic chamber (All Medicus Co., Seoul, Korea), and baseline readings were taken and averaged for 3 min. […] Readings were taken and averaged for 3 min after each nebulization, and enhanced pause (Penh) was determined. Signals were analyzed to derive whole body flow parameters including respiratory rate, tidal volume, inspiratory time (Ti), expiratory time (Te)1. peak inspiratory flow (PIF), peak expiratory flow (PEF), and relaxation time (RT). […] Baseline Penh measurements for each animal were recorded for 3 min and averaged. Results are expressed as the percentage increase of Penh following challenge with each concentration of methacholine, where the baseline Penh (after saline challenge) is expressed as 100%. Penh values averaged for 3 min after each nebulization were evaluated. […]

Molecule: antisense BLT2: Antisense BLT2 oligonucleotide 5′-GCTCAGTAGTGTCTCATTCC-3′ (SEQ ID NO: 15) (listed as DNA, chemistry not fully specified)
- suppression of OVA-induced VCAM-1 induction in lung tissue (VCAM-1; antisense BLT2 1.6 mg/kg): −60%
- reduction of Penh (based on area-under-the-curve calculations) (OVA-challenged mice; antisense BLT2 1.6 mg/kg i.v.): −70%

Molecule: antisense Rac: phosphorothioate 17-mer to the 5′ end of murine Rac mRNA, 5′-CACTTGATGGCCTGCAT-3′ (SEQ ID NO: 22) (listed as DNA, chemistry not fully specified)
- OVA-induced VCAM-1 induction in lung tissue (VCAM-1; antisense Rac 1.25 mg/kg, tail vein): suppressed this effect
- AHR after allergen challenge (OVA-challenged mice; mouse model system for asthma, antisense oligomers to Rac1): remarkably reduced

Molecule: CCc1cc(C(C)=O)c(O)cc1OCCCCCC(C)(C)c1nnn[nH]1 [LY255283, 1-[5-ethyl-2-hydroxy-4-[[6-methyl-6-(1H-tetrazol-5-yl)heptyl]oxy]phenyl]-ethanone, reference compound]
- suppression of OVA-induced VCAM-1 induction in lung tissue (VCAM-1; LY255283 2.5 mg/kg 1 hr before 1% OVA challenge): −60%
- reduction of Penh (based on area-under-the-curve calculations) (OVA-challenged mice; LY255283 2.5 mg/kg i.v.): −70%
